The results in this text go back to the SangsterLogP compilation.

Molecules are shown by their SMILES.

A short description of one data set: method code SF-GLC, from DOI: 10.1016/0048-3575(87)90042-3.
As a reminder, the logP is the decadic logarithm of the partition coefficient of the neutral form, usually between octanol and water. In turn, `CCNC(=O)NC(C)=O` returned a logP of -0.01.

As for `CNC(=O)NC(C)=O`, the logP is -0.7.

The molecule `CNC(N)=O` had a logP of -1.4.

The next data set is described as follows: method code SF-AS, from DOI: 10.1016/0048-3575(87)90042-3.
The molecule `CCNC(=O)NC(=O)c1ccccc1` gave a logP of 1.92. `CC(=O)NC(=O)Nc1ccccc1` displayed a logP of 1.6.

Molecule `COc1ccccc1C(=O)NC(=O)Nc1ccc(Cl)cc1` displayed a logP of 4.35. The same measure, in the same setting: under `NC(=O)Nc1ccccc1` stands 0.83; under `COc1ccccc1C(N)=O`, 0.84.

In turn, `Cc1cccc([N+](=O)[O-])c1C(=O)NC(=O)Nc1ccc(Cl)cc1` showed a logP of 3.75. On the same count and under the same terms, under `CNC(=O)NC(=O)c1ccccc1` stands 1.27; under `Cc1cccc([N+](=O)[O-])c1C(N)=O`, 0.12; under `O=C(NC(=O)c1ccccc1)Nc1ccccc1`, 3.39. `NC(=O)c1c(F)cccc1F` had a logP of 0.25.
